Measurements as given in US6020480A, “Caged NADP and NAD” (The Regents of the University of California, priority 1997, dated 2000).

Columns and labels:
[1] = Rates of photorelease from decay of the aci-nitro anions after photolysis; format: physicochemical
Protocol: The decay of aci-nitro intermediates was monitored at 402 nm or 418 nm with an Osram 50-W tungsten halogen lamp following excitation at 355 nm with a 55 mJ 8-ns pulse. Samples were prepared with 50 mM phosphate buffer, pH 7.0 or pH 6.0. […] Kinetic analysis was made by nonlinear, least-squares computer iteration. The averages of three trials are reported.

[2] = biological target: T1, IDH, isocitrate dehydrogenase (Escherichia coli) (Escherichia coli, UniProt P08200); assay: Crystallographic analysis of caged compounds soaked into IDH crystals; format: binding; conditions: 250 mM soak
T1 construct: made in house
Description: IDH was purified and crystallized as described previously by Reeves, H. C., Daumy, G. O., Lin, C. C., and Houston, M. (1972) Biochim. Biophys. Acta 258, 27-39; LaPorte, D. C., Thorsness, P. E., and Koshland, D. E., Jr. (1985) J. Biol. Chem. 260, 10563-10568; Hurley, J. H., Thorsness, P. E., Ramalingam, V., Helmers, N. H., Koshland, D. E., Jr., and Stroud, R. M. (1989) Proc. Natl. Acad. Sci. U.S.A 86, 8635-8639; and Stoddard, B. L., Dean, A., and Koshland, D. E., Jr. (1993) Biochemistry 32, 9310-9316.
The crystals were 0.5 to 1.5 mm along their longest edges, with a shorter third dimension of 0.2 to 0.3 mm; the crystals belong to space group P43 21 2. The unit cell dimensions prior to photolysis and after binding liberated substrate consistently refined to values within 0.5% of the previously published lengths during data processing.
A total of six crystallographic data sets were collected for this study. The structure of the enzyme was determined prior to photolysis after soaking with each compound, both in the presence and absence of bound isocitrate/Mg^+2. The structure of the bound photolysis product was also determined for both caged compounds in the absence of isocitrate/Mg^+2.
For each experiment, a crystal was transferred to 0.5 mL of a stabilization solution (generally 10% higher ammonium sulfate than that used to grow the crystals, buffered at pH 7.0 with HEPES) and soaked overnight in the dark with 250 mM of either 1 or 3. These experiments were performed for each compound in the presence and absence of 50 mM isocitrate and MgSO4. To protect the crystal from oxidative degradation after photolysis by the nitroso photoproducts, β-mercaptoethanol (10 mM) and DTT (10 mM) were also added to the mother liquor. The crystals were mounted under safe-light in quartz capillaries with mother liquor at either end of the capillary. The mount was sealed with mineral oil and paraffin wax. Initial data were collected at room temperature in the dark on an RAXIS imaging plate area detector with a Rigaku RU-200 rotating anode X-ray generator operating at 50 kV, 80 mA. A complete data set was collected from each crystal to 2.5 Å resolution using 20 1.5° rotations at 30 minutes per frame, followed by an additional 10 frames collected with the crystal on a 45° jig (Molecular Structure Corporation) for completeness. The total decay in X-ray intensities during collection of each of these four dark data sets was less than 5% of the initial structure average factor amplitudes.
Crystals that were soaked in caged 1 or 3 in the absence of isocitrate were each irradiated after the dark data collection, using a two minute exposure with a Cole Parmer 9741-50 quartz halogen light source with a 9741-03 high intensity 150 watt bulb and dual fiber optic light pipes and focusing lenses. […]

[3] = biological target: T1, IDH, isocitrate dehydrogenase (Escherichia coli); assay: Turnover check by absorbance analysis of dissolved IDH crystals after extensive soaks; format: biochemical; conditions: crystals soaked in presence of bound isocitrate/Mg+2
Description: The nicotinamide ring, its ribose sugar, and the first backbone phosphate are all completely disordered. […] The presence of the caging group on the carboxyamide nitrogen sterically prevents hydride transfer. […] After photolysis in the absence of isocitrate, liberated NADP 1002 is still bound to the active site as previously determined for unmodified NADP, as shown in FIG. C. The clear advantage of this compound as a photolytic trigger for time-resolved studies is that it is bound to the enzyme active site prior to photolysis, so that no additional diffusion or binding events are necessary to form the Michaelis complex.

[4] = 10 mM DTT, monitored at 418 nm, double exponential fit
[5] = absence of bound isocitrate/Mg+2, dark
[6] = presence of bound isocitrate/Mg+2, dark

T1 sequence (P08200 whole entry): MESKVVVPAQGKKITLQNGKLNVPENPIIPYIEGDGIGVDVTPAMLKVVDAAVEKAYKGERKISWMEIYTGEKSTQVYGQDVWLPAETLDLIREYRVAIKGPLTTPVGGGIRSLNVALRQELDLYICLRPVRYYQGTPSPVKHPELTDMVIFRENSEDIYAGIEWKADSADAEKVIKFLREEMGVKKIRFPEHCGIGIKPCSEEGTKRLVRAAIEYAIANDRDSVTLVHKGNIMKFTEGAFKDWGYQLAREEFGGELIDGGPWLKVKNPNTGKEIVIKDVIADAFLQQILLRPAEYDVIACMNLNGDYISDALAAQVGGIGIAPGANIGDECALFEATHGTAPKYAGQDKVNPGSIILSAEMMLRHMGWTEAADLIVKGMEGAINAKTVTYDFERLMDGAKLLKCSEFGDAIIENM

Row | Compound | fast decay component ([1]; DTT concentration not stated) [s⁻¹] | aci-nitro transient decay rate, fast component [1, 4] [s⁻¹] | aci-nitro transient decay rate, slow component [1, 4] [s⁻¹] | aci-nitro transient decay rate, fast component ([1]; 100 mM DTT, 418 nm) [s⁻¹] | aci-nitro transient decay rate, slow component ([1]; 100 mM DTT, 418 nm) [s⁻¹] | binding to IDH active site before photolysis [2, 5] | binding to IDH active site before photolysis [2, 6] | first-order decay rate k of transient (rate of photorelease) ([1]; 50 mM phosphate buffer, pH 7.0) [s⁻¹] | rate of photorelease ([1]; sample pH 6) [s⁻¹] | IDH turnover with caged cofactor before photolysis [3]
1 | P-[1-(4,5-Dimethoxy-2-nitrophenyl)ethyl] nicotinamide adenine dinucleotide [compound 2] | 17000 | – | – | – | – | – | – | – | – | –
2 | COc1cc(C(C)OP(=O)(O)O[C@@H]2[C@H](O)[C@@H](COP(=O)(O)OP(=O)([O-])OC[C@H]3O[C@@H]([n+]4cccc(C(N)=O)c4)[C@H](O)[C@@H]3O)O[C@H]2n2cnc3c(N)ncnc32)c([N+](=O)[O-])cc1OC (stereo partly drawn) [compound 1, P^2' -[1-(4,5-Dimethoxy-2-nitrophenyl)ethyl]nicotinamide adenine dinucleotide phosphate] | – | 13000 | 93 | 18000 | 480 | fails to bind | fails to bind | – | – | –
3 | Nc1ncnc2c1ncn2[C@@H]1O[C@H](COP(=O)(O)OP(=O)([O-])OC[C@H]2O[C@@H]([n+]3cccc(C(=O)NC(C(=O)O)c4ccccc4[N+](=O)[O-])c3)[C@H](O)[C@@H]2O)[C@@H](O)[C@H]1OP(=O)(O)O (stereo partly drawn) [compound 3, N-(α-Carboxy-2-nitrobenzyl)-nicotinamide adenine dinucleotide phosphate] | – | – | – | – | – | binds to the enzyme | both backbone phosphates of the caged cofactor are well ordered | 30 | 42 | turnover does not occur
